The test system of assay [1] is frataxin deficient fibroblasts (GM03665). As to the kind of experiment: Frataxin Deficient Fibroblast Viability Assay (BSO Assay). The settings on record: Homo sapiens, 48 h.
Assay [2] deals with HepG2 human hepatocarcinoma cells. As to the kind of experiment: Rotenone ATP-Assay (Complex I by-pass). The settings on record: for Activity in both the BSO Assay and the Rotenone ATP Assay (in words): circumvent BSO induced cell death and restore ATP production when Complex I is inhibited; for EC50: Homo sapiens, 1 h, HepG2 cells, 50 micromolar rotenone, 60 minutes. The format is cell-based. The procedure: Example 18: Rotenone ATP-Assay
Introduction: • This assay has been adapted from Haefeli R H, Erb M, Gemperli A C, Robay D, Courdier Fruh I, et al. (2011) NQO1-Dependent Redox Cycling of Idebenone: Effects on Cellular Redox Potential and Energy Levels. PLoS ONE 6(3): e17963. HepG2 human hepatocarcinoma cells were co-incubated with the electron transport chain Complex I toxin rotenone +/−compounds of interest and the corresponding effect on ATP synthesis was measured with a bioluminescent substrate.
Assay Experimental: • In brief, HepG2 cells were plated at 25,000 cells per well in low glucose (1 gram/Liter) DMEM medium +10% fetal calf serum and incubated for 24 hours. The following day, the media was decanted and subsequently replaced with glucose free/serum free DMEM which has been supplemented with 50 micromolar rotenone and compound of interest. Serial dilutions of compound were prepared in 3× dilutions beginning at 25 micromolar. The cells were incubated for 60 minutes in a humidified tissue culture incubator. Following incubation, ATP levels were quantified via bioluminescent assay (Promega […]) and readings were captured on a standard microplate reader.
Calculations: • ATP bioluminescence is plotted versus the log of compound of interest and data were used to generate EC50 values. Curve fitting was performed using a sigmoidal dose response curve fit function (GraphPad Prism software).
Robustness of curve fit was assessed as a quality control measure, with an R squared value of at least 0.80 being required for a successful curve fit. Compounds of interest showing an increase in ATP bioluminescence relative to vehicle control were verified in an independent biological replicate of n=3 technical replicates per dose.
Discussion: • This assay is a direct measure of the ability of compounds of interest to restore ATP production under conditions of inhibition of Complex I of the mitochondrial electron transport chain. As the majority of ATP produced via the electron transport chain is thought to derive from Complex I activity, significant impairment in Complex I function has dire biological consequences. Of note, Complex I mutations are thought to drive pathophysiology in multiple mitochondrial diseases, including Leigh syndrome and Leber's Hereditary Optic Neuropathy (LHON), while diminished Complex I activity and the resultant attenuation of ATP production has been shown in neurodegenerative diseases, including Friedreich's Ataxia, Parkinson's Disease and Huntington's Disease.

Assay [3] concerns GM03665 cells. As to the kind of experiment: RSL3 Toxicity Assay (RSL3 Assay). It counts as cell-based, human. The settings on record: Homo sapiens, GM03665 cells, RSL3 2 μM, 24 hours, MTT. The procedure: Example 19: RSL3 Toxicity Assay (RSL3 Assay)
In brief, GM03665 cells (Coriell Institute) were seeded in 96-well plates (Sarstedt) in DMEM cell culture media containing 10% Fetal Bovine serum and 1% Penicillin-Streptomycin (Pen-Strep) antibiotic mix at the amount of 2×10^4/mL (100 μL or 2×10^3 cells per well). Cells were left to rest overnight at 37° C. in a humidified atmosphere with 5% CO2 to allow attachment of the cells to the culture plate. Test compounds were prepared as DMSO stocks (10 mM) and were serially diluted in cell culture media to obtain 2× working solutions. Cell media was discarded and replaced by 50 μL of test compound solutions or cell media with vehicle for control wells. Within 15 minutes, 2× working solution (4 μM) of 1S,3R-RSL3 (CAS #1219810-16-8, Sigma-Aldrich) (diluted from 5 mM DMSO stock in cell culture media) was added. Final reaction volume was 100 μL and final DMSO concentration in reaction was kept below 0.2% (v/v) and equal in all wells. Final RSL3 concentration was 2 μM and test compound final concentrations in reaction were up to 1000 nM. After 24 hours of incubation cell viability was assessed by MTT test. MTT (Sigma-Aldrich) solution 1 mg/mL in 1×PBS (pH=7,4) was prepared 1 hour before the assay and filtered through Filtropur S 0.2 filters (Sarstedt). Cell media with test compounds was discarded and 100 μL of MTT solution was added to cells. The plates were incubated for 2 hours at +37° C. Thereafter, the MTT solution was removed and 100 μL of isopropanol was added to dissolve sediment. Absorption at 570 and 650 nm was measured using Hidex Sense microplate reader.

In assay [4] the test system is Nrf-2. As to the kind of experiment: Nrf-2 Activation Assay (Nrf-2 Assay). The format is cell-based, human. The settings on record: 1 μM, 24 hours; for Nrf-2 Assay: Table 7, GM03665 fibroblasts, qPCR of Nrf-2 responsive genes. The procedure: Example 21: Nrf-2 Activation Assay (Nrf-2 Assay)
This assay was developed internally and was designed to determine if the novel test compounds disclosed herein active Nrf-2 and thereby promote resolution of inflammation by the mechanism believed to be responsible for the activity of omaveloxolone.
Briefly, GM03665 Friedreich Ataxia patient fibroblasts were grown in 12 Well Plates (TC Cell+F) (Sarstedt, Nümbrecht Germany), at a density of 12×10^4 cells/per well in DMEM/F12 (Gibco, ThermoFisher Scientific, Waltham, Mass., USA) cell media supplemented with 10% FBS and 1% Pen/Strep. Cells were left to rest overnight at 37° C. in a humidified atmosphere with 5% CO2 to allow attachment of the cells to the culture plate. Before continuing assay visual inspection of each well was done by light microscopy to detect any possible bacterial and fungal contamination. […] After incubation, cell media was removed and total RNA from the cells was isolated using E.Z.N.A.® Total RNA Kit I (Omega Bio-tek, Norcross, Ga., USA) spin columns, and first-strand cDNA synthesis was carried out using a High Capacity cDNA Reverse Transcription Kit (Applied Biosystems™, Foster City, Calif.) following the manufacturer's instructions. qPCR analysis of gene expression was performed by mixing SYBR® Green Master Mix (Applied Biosystems™) with synthesized cDNA and forward and reverse primers. […] (60 cycles), and 95° C. for 60 seconds, followed by melt curve analysis at 72-95° C., 0.3° C./sec. The relative expression levels for each gene were calculated with the ΔΔCt method and normalized to the expression of REEP5 and SNRPD3 genes.
For orientation: Real-time PCR tracks product formation cycle by cycle.

[5] abbreviates: ATP bioluminescence, read-out: EC50 Rotenone ATP Assay.
The mark [6] stands for this setting: Table 3, mean of at least three measurements, nM printed in Table 7, read-out: RSL3 Assay EC50, Mean.
[7] abbreviates: Table 7, read-out: RSL3 Assay EC50.
[8] abbreviates: Table 7, read-out: Rotenone ATP Assay EC50.

These results are taken from patent publication US11584728B2, “Compositions and methods for the prevention and/or treatment of mitochondrial disease, including Friedreich's ataxia” (STEALTH BIOTHERAPEUTICS INC., priority 2019, dated 2023).

Read-outs that look alike come from different tables or passages of the source. Some results are limits rather than exact numbers.

Take `C/C(=C\CC[C@]1(C)CCc2c(C)c(O)c(C)c(C)c2O1)CCC=C(F)F` [Compound 56, (R,E)-2-(8,8-difluoro-4-methylocta-3,7-dien-1-yl)-2,5,7,8-tetramethylchroman-6-ol]: in assay [1] (read-out: EC50 (nM) BSO Assay), the EC50 is below 100 nM.
As to `Cc1c(C)c2c(c(C)c1O)CC[C@@](C)(CCC=C(F)F)O2` [Compound 67, (R)-2-(4,4-difluorobut-3-en-1-yl)-2,5,7,8-tetramethylchroman-6-ol], the “Activity in both the BSO Assay and the Rotenone ATP Assay (in words)” value in assay [2] was “possess both activities”. Further, the EC50 in assay [1] (read-out: EC50 (nM) BSO Assay) is below 100 nM.
Turning to `CC1=C(C)C(=O)C(CC[C@](C)(O)CC/C=C(\C)CC/C=C(\C)CCC=C(CF)CF)=C(C)C1=O` [Compound A, 2-((R,6E,10E)-16-fluoro-15-(fluoromethyl)-3-hydroxy-3,7,11-trimethylhexadeca-6,10,14-trien-1-yl)-3,5,6-trimethylcyclohexa-2,5-diene-1,4-dione], the EC50 in assay [1] (read-out: EC50 (nM) BSO Assay) is below 100 nM.
Still for that read-out and setting: to `CC(=CCC/C(C)=C/CC/C(C)=C/CC[C@@](C)(O)CCC1=C(C)C(=O)C(C)=C(C)C1=O)CF` [Compound B, 2-((R,6E,10E)-16-fluoro-3-hydroxy-3,7,11,15-tetramethylhexadeca-6,10,14-trien-1-yl)-3,5,6-trimethylcyclohexa-2,5-diene-1,4-dione] belongs below 100 nM; to `CC1=C(C)C(=O)C(CC[C@](C)(O)CC/C=C(\C)CC/C=C(\C)CCC=C(F)F)=C(C)C1=O` [Compound C, 2-((R,6E,10E)-15,15-difluoro-3-hydroxy-3,7,11-trimethylpentadeca-6,10,14-trien-1-yl)-3,5,6-trimethylcyclohexa-2,5-diene-1,4-dione], below 100 nM.
As to `CC1=C(C)C(=O)C(CC[C@](C)(O)CC/C=C(\C)CC/C=C(\C)CCC=C2CCC2)=C(C)C1=O` [Compound D, 2-((R,6E,10E)-14-cyclobutylidene-3-hydroxy-3,7,11-trimethyltetradeca-6,10-dien-1-yl)-3,5,6-trimethylcyclohexa-2,5-diene-1,4-dione], the figures for the EC50 in assay [2] (setting [5]) and in assay [1] (read-out: EC50 (nM) BSO Assay) were above 3000 nM and below 100 nM, respectively.
In the case of `CC1=C(C)C(=O)C(CC[C@](C)(O)CC/C=C(\C)CC/C=C(\C)CCC=C2CCCC2)=C(C)C1=O` [Compound F, 2-((R,6E,10E)-14-cyclopentylidene-3-hydroxy-3,7,11-trimethyltetradeca-6,10-dien-1-yl)-3,5,6-trimethylcyclohexa-2,5-diene-1,4-dione], the EC50 in assay [1] (read-out: EC50 (nM) BSO Assay) was below 100 nM.
The same measure, in the same setting: the value for `CC1=C(C)C(=O)C(CC[C@](C)(O)CC/C=C(\C)CC/C=C(\C)CCC=C2CCCCC2)=C(C)C1=O` [Compound G, 2-((R,6E,10E)-14-cyclohexylidene-3-hydroxy-3,7,11-trimethyltetradeca-6,10-dien-1-yl)-3,5,6-trimethylcyclohexa-2,5-diene-1,4-dione] was below 100 nM.
As to `CC1=C(C)C(=O)C(CC[C@](C)(O)CC/C=C(\C)CCC=C(F)F)=C(C)C1=O` [Compound H, (R,E)-2-(11,11-difluoro-3-hydroxy-3,7-dimethylundeca-6,10-dien-1-yl)-3,5,6-trimethylcyclohexa-2,5-diene-1,4-dione], the EC50 is 179 nM in assay [3] (setting [6]); 179 nM in assay [3] (setting [7]); below 1000 nM in assay [2] (setting [5]); 1140 nM in assay [2] (setting [8]); 164 nM in assay [1] (read-out: BSO Assay); 100 to 1000 nM in assay [1] (read-out: EC50 (nM) BSO Assay). For the same compound, in assay [4], the “Nrf-2 Assay” value is “Inactive”.
For `CC1=C(C)C(=O)C(CC[C@](C)(O)CCC=C(F)F)=C(C)C1=O` [Compound I, (R)-2-(7,7-difluoro-3-hydroxy-3-methylhept-6-en-1-yl)-3,5,6-trimethylcyclo-hexa-2,5-diene-1,4-dione], the results for the EC50 in assay [2] (setting [5]) and in assay [1] (read-out: EC50 (nM) BSO Assay) were above 3000 nM and 100 to 1000 nM, respectively.
In the case of `CC1=C(C)C(=O)C(CC[C@@](C)(O)CC/C=C(\C)CC/C=C(\C)CCC=C(F)F)=C(C)C1=O` [Compound J, 2-((S,6E,10E)-15,15-difluoro-3-hydroxy-3,7,11-trimethylpentadeca-6,10,14-trien-1-yl)-3,5,6-trimethylcyclohexa-2,5-diene-1,4-dione], in assay [1] (read-out: EC50 (nM) BSO Assay), the EC50 is below 100 nM.
For `CC1=C(C)C(=O)C(CC[C@@](C)(O)CCC=C(F)F)=C(C)C1=O` [Compound K, (S)-2-(7,7-difluoro-3-hydroxy-3-methylhept-6-en-1-yl)-3,5,6-trimethylcyclo-hexa-2,5-diene-1,4-dione], the EC50 in assay [2] (setting [5]) is above 3000 nM; in assay [1] (read-out: EC50 (nM) BSO Assay), below 100 nM.
Take `CC1=C(C)C(=O)C(CC[C@@](C)(O)CC/C=C(\C)CCC=C(F)F)=C(C)C1=O` [Compound L, (S,E)-2-(11,11-difluoro-3-hydroxy-3,7-dimethylundeca-6,10-dien-1-yl)-3,5,6-trimethylcyclohexa-2,5-diene-1,4-dione]: the EC50 in assay [3] (setting [6]) was 41.9 nM; in assay [3] (setting [7]), 41.9 nM; in assay [2] (setting [5]), below 1000 nM; in assay [2] (setting [8]), 891 nM; in assay [1] (read-out: BSO Assay) it was 39.1 nM; in assay [1] (read-out: EC50 (nM) BSO Assay) it was below 100 nM. Further, the “Activity in both the BSO Assay and the Rotenone ATP Assay (in words)” value in assay [2] is “possess both activities”. The “Nrf-2 Assay” value in assay [4] was “Inactive”.
Turning to `COC1=C(OC)C(=O)C(CCCCCCCCCCO)=C(C)C1=O` [Idebenone, reference compound], the results for the EC50 in assay [2] (setting [5]), in assay [2] (setting [8]) and in assay [1] (read-out: BSO Assay) were 1000 to 3000 nM, 1560 nM and above 1000 nM, respectively.
For `CC1(C)CC[C@]2(NC(=O)C(C)(F)F)CC[C@]3(C)[C@H](C(=O)C=C4[C@@]5(C)C=C(C#N)C(=O)C(C)(C)[C@@H]5CC[C@]43C)[C@@H]2C1` [Omaveloxolone, reference compound], the values for the EC50 in assay [2] (setting [5]), in assay [1] (read-out: BSO Assay) and in assay [1] (read-out: EC50 (nM) BSO Assay) were above 3000 nM, 48.6 nM and below 100 nM, respectively. In assay [4], the “Activation of Nrf-2 responsive genes (in words, FIG. 7)” value was “positive”. Further, in assay [4], the “Nrf-2 Assay” value was “Active”.
